Legend:
[1] = system: DAOY medulloblastoma cells; test: Cell cycle analysis by flow cytometry after release from G1/S block; format: cell-based, human; details: for G0/G1 / G2/M / S: DAOY released from G1/S block
Method: DNA was stained with 100 μg/ml propidium iodide (PI) in hypotonic citrate buffer with 20 μg/ml ribonuclease A. Stained nuclei were analyzed for DNA-PI fluorescence using an Accuri C6 flow cytometer (Accuri Cytometers Inc., Ann Arbor, Mich.). Resulting DNA distributions for sub G0/G1, G0/G1, S and G2/M phase of the cell cycle were analyzed with CFlow plus software (Accuri Cytometers Inc).
For analysis of cell cycle profiles after mitotic block, cells were synchronized with 2 mM thymidine for 24 hours. The block was released for 3 hours and cells were arrested in prometaphase with 100 nM nocodazole for 12 hours. For G1/S arrest, cells were synchronized for 18 hours with 2 mM thymidine, released for 9 hours, followed by a second thymidine arrest for 18 hours. The block was then released in the presence of DMSO or curcumin as indicated and the cells were processed as described above.
DNA was stained with 100 μg/ml propidium iodide (PI) in hypotonic citrate buffer with 20 μg/ml ribonuclease A. Stained nuclei were analyzed for DNA-PI fluorescence using an Accuri C6 flow cytometer (Accuri Cytometers Inc., Ann Arbor, Mich.). Resulting DNA distributions for sub G0/G1, G0/G1, S and G2/M phase of the cell cycle were analyzed with CFlow plus software (Accuri Cytometers. Inc).
For analysis of cell cycle profiles after mitotic block, cells were synchronized with 2 mM thymidine for 24 hours. The block was released for 3 hours and cells were arrested in prometaphase with 100 nM nocodazole for 12 hours. For G1/S arrest, cells were synchronized for 18 hours with 2 mM thymidine, released for 9 hours, followed by a second thymidine arrest for 18 hours. The block was then released in the presence of DMSO or curcumin as indicated and the cells were processed as described above. […] The data from these cell cycle studies are the mean±SEM of three independent experiments.
At 0, 4, 8, 12, 16 and 20 hours, cell cycle progression was analyzed by flow cytometry.

[2] = biological target: T1, Cdc27 (Homo sapiens, UniProt P30260); test: Pull-down from DAOY cell lysates with curcumin-bound Sepharose beads; format: binding; details: two independent bead preparations, vs control beads
T1 construct: endogenous in cells; host or cells: DAOY medulloblastoma cells
Method: After washing, unoccupied binding sites were blocked with 1 M ethanolamine by overnight incubation. Low (0.1 M acetate buffer, pH 4) and high (0.1 M Tris-HCl, pH 8, 0.5 M NaCl) pH buffers were used each three times to wash and equilibrate the beads. Control beads were prepared in parallel with curcumin-coupled beads but curcumin was omitted. DAOY cell lysates were prepared in a lysis buffer of 100 mM HEPES, pH 7.6, 300 mM NaCl, 0.1% Triton X-100, 2 mM EDTA, 2 mM EGTA supplemented with phosphatase and protease inhibitors. 500 μg of protein was mixed with 20 μl of curcumin-coupled Sepharose beads and incubated for 3 hours at 4° C. After washing bound proteins were eluted with 1×SDS-PAGE sample buffer and processed for immunoblotting.
DAOY cell lysates were incubated with curcumin-bound Sepharose beads and then subjected to SDS-PAGE and immunoblotting with Cdc27. A BubR1 immunoblot was included as control for non-specific binding. […] The cell lysates were separated by SDS-PAGE and immunoblotted for Cdc27. […] Data represent mean±SEM of three independent experiments.

[3] = system: MDCK cells; test: LDH release cytotoxicity assay; format: cell-based; details: 24 hours, 0, 5, 10 and 20 μM; low phosphorylated Cdc27
Method: Lactate dehydrogenase (LDH) levels as a measure of cell death were determined using the Non-radioactive Cytotoxicity kit (Promega, Madison, Wis.) according to manufacturer's instructions. […] Cell debris was removed by centrifugation. Viable cell LDH was collected from cells lysed by freezing for 15 minutes at −70° C. followed by thawing at 37° C. The medium was collected and cleared from cell debris by centrifugation. The relative release of LDH was determined as the ratio of released LDH versus total LDH from viable cells.

[4] = system: HT1376 cells; test: LDH release cytotoxicity assay; format: cell-based; details: 24 hours, 0, 5, 10 and 20 μM; low phosphorylated Cdc27
[5] = biological target: T2, Cdc27 association with p55Cdc20, APC2, APC8 (Homo sapiens, UniProt P30260); test: Co-immunoprecipitation with anti-Cdc27 antibodies; format: cell-based; details: DAOY, curcumin for 8 hours
T2 construct: endogenous in cells
Method: For immunoprecipitation, cells were lysed at 4° C. for 30 min in a buffer of 50 mM HEPES, pH 7.4, 150 mM NaCl 0.5% NP-40, 1 mM EDTA, 1 mM Na3VO4, 1 mM aprotinin, 1 mM leupeptin and 1 mM PMSF. Equal amounts of protein (from 0.5 to 2 mg) were incubated with Cdc27 antibody for 4 hours at 4° C. followed by protein G-Sepharose (GE Healthcare) for 2 hours, washed extensively, and analyzed by immunoblotting with indicated antibodies. For λ-phosphatase treatment, Cdc27 was immunoprecipitated as above except that phosphatase and protease inhibitors were omitted and then incubated with λ-[…]phosphatase according to the manufacturer's protocol (New England Biolabs, Ipswich, Mass.).
Proper APC/C function requires co-activator proteins such as Cdc20 or Cdh1 that may facilitate the recruitment of substrates. […] Cell lysates were subjected to immunoprecipitation with anti-Cdc27 antibodies. Immunoprecipitated proteins were immunoblotted with antibodies to APC2, APC8, p55 Cdc20 or Cdh1. Immunoblots of total cell lysates are shown to ensure equal loading. […] Under the experimental conditions used, Cdh1 was not found to be associating with Cdc27 (FIG. 8C).

[6] = system: acetylated tubulin; test: Acetylated tubulin accumulation in cell lines; format: cell-based; details: cells with low levels of phosphorylated Cdc27; 20 μM curcumin for 0, 4, 8 and 24 hours
Method: Accumulation of acetylated tubulin was assayed. […] Thus, loss of Cdc27 function or p55Cdc20 association with Cdc27 may be linked to increased tubulin acetylation in curcumin-treated cells.

T1 sequence (P30260 1-830 isoform P30260-2): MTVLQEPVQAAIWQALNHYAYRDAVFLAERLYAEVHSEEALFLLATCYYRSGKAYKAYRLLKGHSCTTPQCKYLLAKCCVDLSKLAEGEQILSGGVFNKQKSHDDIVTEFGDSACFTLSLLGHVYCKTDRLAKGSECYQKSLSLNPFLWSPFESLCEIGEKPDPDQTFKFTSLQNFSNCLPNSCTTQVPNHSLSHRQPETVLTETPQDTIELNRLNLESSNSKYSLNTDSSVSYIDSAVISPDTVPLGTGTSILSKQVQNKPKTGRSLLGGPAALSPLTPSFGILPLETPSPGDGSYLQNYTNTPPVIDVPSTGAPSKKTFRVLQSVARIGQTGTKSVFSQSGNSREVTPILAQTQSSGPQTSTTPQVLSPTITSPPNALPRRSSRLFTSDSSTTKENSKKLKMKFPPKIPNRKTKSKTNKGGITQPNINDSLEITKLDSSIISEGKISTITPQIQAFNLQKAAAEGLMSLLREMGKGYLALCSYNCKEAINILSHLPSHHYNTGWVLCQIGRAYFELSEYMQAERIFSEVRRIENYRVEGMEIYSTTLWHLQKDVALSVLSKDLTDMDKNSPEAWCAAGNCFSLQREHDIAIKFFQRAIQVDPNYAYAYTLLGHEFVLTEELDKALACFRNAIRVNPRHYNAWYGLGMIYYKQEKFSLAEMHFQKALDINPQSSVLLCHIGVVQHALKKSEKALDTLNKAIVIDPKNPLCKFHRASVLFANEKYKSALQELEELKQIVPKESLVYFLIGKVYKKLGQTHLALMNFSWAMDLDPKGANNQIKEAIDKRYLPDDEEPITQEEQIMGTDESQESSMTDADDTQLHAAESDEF

In the case of `COc1cc(/C=C/C(=O)CC(=O)/C=C/c2ccc(O)c(OC)c2)ccc1O` [Curcumin, (E,E)-1,7-bis(4-hydroxy-3-methoxyphenyl)-1,6-heptadiene-3,5-dion], the “cells that had not re-entered G0/G1” value ([1]; 20 μM curcumin, 20 hours after removal of the thymidine block) is reported as 56.9%, the “time after release at which cells reached G2/M” value ([1]; DAOY released from G1/S block in the presence of 10 μM curcumin (control 8-12 hours)) is reported as 12 to 16 h and the “time after release at which cells reached G2/M” value ([1]; DAOY released from G1/S block in the presence of 20 μM curcumin (control 8-12 hours)) is reported as 16 to 20 h. The “sub-G0/G1 signal (apoptosis)” value ([1]; DAOY released from G1/S block with curcumin, up to 20 hours) was “no sub-G0/G1 signal, was detected”, the G0/G1 ([1]; 10 μM Curcumin, 0 Hr) was 48.15 ± 0.32% and the G2/M ([1]; 10 μM Curcumin, 0 Hr) was 32.96 ± 1.97%. For the same compound, the S ([1]; 10 μM Curcumin, 0 Hr) was 18.89 ± 2.17%, the G0/G1 ([1]; 10 μM Curcumin, 4 Hr) was 41.92 ± 5.16% and the G2/M ([1]; 10 μM Curcumin, 4 Hr) was 25.88 ± 3.55%. It also gave an S ([1]; 10 μM Curcumin, 4 Hr) of 32.13 ± 2.64%, a G0/G1 ([1]; 10 μM Curcumin, 8 Hr) of 24.94 ± 4.83% and a G2/M ([1]; 10 μM Curcumin, 8 Hr) of 35.33 ± 5.04%. For the same compound, the S ([1]; 10 μM Curcumin, 8 Hr) was 39.71 ± 4.45%, the G0/G1 ([1]; 10 μM Curcumin, 12 Hr) was 32.40 ± 8.28% and the G2/M ([1]; 10 μM Curcumin, 12 Hr) was 44.92 ± 11.40%. It also gave an S ([1]; 10 μM Curcumin, 12 Hr) of 22.71 ± 3.49%, a G0/G1 ([1]; 10 μM Curcumin, 16 Hr) of 42.40 ± 6.35% and a G2/M ([1]; 10 μM Curcumin, 16 Hr) of 34.85 ± 9.11%. It also gave an S ([1]; 10 μM Curcumin, 16 Hr) of 22.75 ± 3.63%, a G0/G1 ([1]; 10 μM Curcumin, 20 Hr) of 46.46 ± 2.96% and a G2/M ([1]; 10 μM Curcumin, 20 Hr) of 29.88 ± 3.86%. The S ([1]; 10 μM Curcumin, 20 Hr) was 23.66 ± 4.26%, the G0/G1 ([1]; 20 μM Curcumin, 0 Hr) was 48.15 ± 0.32% and the G2/M ([1]; 20 μM Curcumin, 0 Hr) was 32.96 ± 1.97%. For the same compound, the S ([1]; 20 μM Curcumin, 0 Hr) was 18.89 ± 2.17%, the G0/G1 ([1]; 20 μM Curcumin, 4 Hr) was 40.18 ± 5.31% and the G2/M ([1]; 20 μM Curcumin, 4 Hr) was 28.33 ± 1.56%. For the same compound, the S ([1]; 20 μM Curcumin, 4 Hr) was 31.55 ± 3.94%, the G0/G1 ([1]; 20 μM Curcumin, 8 Hr) was 31.66 ± 3.64% and the G2/M ([1]; 20 μM Curcumin, 8 Hr) was 31.58 ± 2.35%. It also gave an S ([1]; 20 μM Curcumin, 8 Hr) of 36.76 ± 2.49%, a G0/G1 ([1]; 20 μM Curcumin, 12 Hr) of 21.69 ± 2.77% and a G2/M ([1]; 20 μM Curcumin, 12 Hr) of 40.44 ± 3.95%. For the same compound, the S ([1]; 20 μM Curcumin, 12 Hr) was 37.87 ± 3.29%, the G0/G1 ([1]; 20 μM Curcumin, 16 Hr) was 20.99 ± 2.17% and the G2/M ([1]; 20 μM Curcumin, 16 Hr) was 48.68 ± 5.04%. For the same compound, the S ([1]; 20 μM Curcumin, 16 Hr) was 30.34 ± 4.57%, the G0/G1 ([1]; 20 μM Curcumin, 20 Hr) was 27.44 ± 4.69% and the G2/M ([1]; 20 μM Curcumin, 20 Hr) was 43.06 ± 5.04%. The S ([1]; 20 μM Curcumin, 20 Hr) was 29.53 ± 0.59%, the “pull-down of Cdc27 by curcumin-bound Sepharose beads” value [2] was “pulled down Cdc27” and the “sensitivity to curcumin-induced apoptosis (LDH release)” value [3] was “almost unaffected”. The “sensitivity to curcumin-induced apoptosis (LDH release)” value [4] was “almost unaffected”, the “Cdc27 association with the APC/C subunits APC2 and APC8” value [5] was “not affected” and the “p55Cdc20 association with Cdc27” value ([5]; compared to control cells) was “dramatically reduced”. For the same compound, the curcumin-induced tubulin acetylation [6] was “reduced”.

— US8835124B2, “Method for treating cancer with agents that bind phosphorylated CDC27” (The Nemours Foundation, priority 2011, dated 2014)
